Test results from patent US8343458B2, “Probes for in vivo targeting of active cysteine proteases” (The Board of Trustees of the Leland Stanford Junior …, priority 2008, dated 2013).
“Also recorded” adds a separate entry of the source. Values belong to the molecule of their own block, whether it stands above or below them.

Legend:
[1] = system: cathepsins B and L; test: Labeling of intact tumor cells (SDS-PAGE, gel scan); format: cell-based, mouse (C2C12/Ras), human (MDA-MB-435)
From the text: FIG. 2 is a series of figures which, taken together, show the structure and function of representative in vivo probes. FIG. 2A is a schematic drawing of a chelator—conjugated probe, illustrating several component moieties. FIGS. 2B and 2C are gels showing expression and activity of enzyme targets of such probe, with a radionuclide label attached to the illustrated structure, showing the expression and activity of CB in a mouse myoblast cell line C2C12Ras and human breast cancer cell line MDA-MB-435. […] Cells were pretreated with JPM-OEt (50 μM) (+) or with control DMSO (0.1%) (−) for 2 h and labeled by addition of ^64Cu-Z-FK(DOTA)-AOMK (555 KBq, 15 μCi) to culture medium for 2 h. Cells were collected, lysed and analyzed after SDS-PAGE. The labeled proteases were visualized by scanning of the gel with a Typhoon 9410 imager.
Before applying the radiolabel probe in vivo we first tested the ability of the probe to label multiple tumor cell lines grown in vitro. We initially examined the labeling of the human breast cancer cell line MBA-MB-435 and a mouse myoblastoma cell line that had been transformed by overexpression of the ras oncogene (C2C12/Ras). Both of these cell lines were used for in vivo imaging studies with the NIRF-labeled cysteine cathepsin probes. To confirm earlier studies of these cells using the NIRF probes we labeled them with general Cy5-labeled probe GB123 (FIG. 1C). […] Labeling of the same cells with ^64Cu-Z-FK(DOTA)-AOMK confirmed that the DOTA produced a similar labeling pattern to that observed for the NIRF probe GB123.
C2C12/Ras and MDA-MB-435 cells (0.25 M each well) were seeded in a six-well plate one day before the study. Cells were pretreated with the general papain family protease inhibitor JPM-OEt (50 μM^28) or with control DMSO (0.1%) for 1 h and labeled by addition of ^64Cu-Z-FK(DOTA)-AOMK (555 KBq, 15 μCi) to culture medium for 2 h. Cells was then washed with PBS and lysed. Equal amounts of protein per lane were separated by 12% SDS-PAGE. […] The labeled bands were quantified with ImageJ 1.36b (public domain software from National Institute of Health).

[2] = system: C2/C12 Ras tumors; test: Tumor uptake of 64Cu-labeled cathepsin probes in tumor-bearing mice (FIG. 7); format: in vivo, mouse; conditions: 64Cu-labeled probe; for tumor uptake after 2 hrs / tumor uptake after 24 hours: IV
Method: Mice bearing tumors derived from […] C2/C12 Ras transformed cells were IV injected with ^64Cu-labeled probes. Images and total probe accumulation in tumors (arrows) is shown. For purposes of reproduction, the image is converted to black and white and reversed.
Essentially, two to four weeks prior to imaging MDA-MB 231 or C2C12/ras cells (a myoblast cell line wherein ras blocks differentiation) at 2×10^6 cell per spot were injected subcutaneous to the back of Balb-c nude mice.
Mice bearing tumors of similar size were injected intravenous via the tail vein with a DMSO/PBS solution of the compound to be tested. DMSO/PBS was locally injected directly into tumors in indicated mice, 15 minutes prior to probe injection. Fluorescent intensity as photons per second per centimeter square per steradian (p/s/cm2/sr) was recorded from living mice. Images were taken at various time points after probe injection using an IVIS 200 imaging system equipped with a Cy5.5 filter. Other protocols are known and may be adapted for administration and imaging in vivo using the present compounds. Another protocol for mouse studies is given in Joyce et al. “Cathepsin cysteine proteases are effectors of invasive growth and angiogenesis during multistage tumorigenesis,” Cancer Cell 5:443-452 (May 2004), at page 452.
In an initial attempt to make PET compatible cathepsin probes, a Cy5 tag was replaced with a group that could be used to bind ^64Cu. This was compound ^64Cu-DOTA-FFK-AOMK (GB172). […] Without wishing to be bound by any theory, it was reasoned that this poor accumulation in tumors was likely due to changes in the pharmacokinetic (PK) and cell permeability properties as the result of removal of the large, hydrophobic fluorophore molecule. While the improved uptake of the probe having both the macrocyclic chelator and the polyaromatic functionality (Cy5), it is thought that the combination of a bulky chelator and a substituted polyaromatic provided the probe molecule with provided a balance of mass, charge and hydrophobicity that gave the probe increased permeability through the outer lipid membranes of the cells. Following this logic, a version of GB-123 that retains the Cy5 fluorophore and also contains a site for attachment of the PET imaging tag was prepared. This was 64 Cu (GB170).

[3] = target: cathepsin B (Homo sapiens, UniProt P07858); test: Kinetic inhibition study, cathepsin B; format: biochemical; conditions: kinetic inhibition studies
From the text: (§1) We attached the chelator and radionuclide to the probe at the P1 lysine side-chain. By attaching the radiolabel to a side chain, it is less likely to interfere with the binding of the AOMK warhead to the active protease. Previous work has shown that the majority of critical substrate interactions take place in the P2 position of the papain family proteases.
(§2) The kinetics of inhibition may be determined by progress curve method under pseudo-first order conditions with at least 10-fold molar excess of inhibitor. Recorded progress curves are analysed by non-linear regression according to the following equation (Bieth, J. G. Theoretical and practical aspects of proteinase inhibition kinetics. Methods Enzymol, 248, 59-84 (1995).) [P]=vz(1−e^−k·t)/k • where [P] is the product, vz is the velocity at time zero and k is the pseudo first order rate constant. Apparent rate constant (kapp) was determined from the slope of plot k versus [I]. […]
(§3) Activity of human cathepsin L is measured using the fluorogenic substrate Z-FRAMC37 (Bachem, USA) (Km=7.1 μM) and cathepsin B is assayed against the fluorogenic substrate Z-RR-AMC38 (Bachem, USA) (Km=114 μM). […] Increase of fluorescence (370 nm excitation, 460 nm emission) is continuously monitored for 30 minutes by Spectramax M5 spectrofluorimeter. (Molecular Devices, USA) and inhibition curves were recorded. […]

[4] = target: human cathepsin L (Homo sapiens, UniProt P07711); test: Kinetic inhibition study, cathepsin L; format: biochemical; conditions: kinetic inhibition studies
From the text: as §1, §2, §3

[5] = system: C2C12/Ras tumors; test: Biodistribution in nude mice bearing subcutaneous C2C12/Ras tumors; format: in vivo, mouse; conditions: C2C12/Ras tumor mice, i.v. 740 kBq
Method: All animal studies were carried out in compliance with Federal and local institutional rules for the conduct of animal experimentation. Female athymic nude mice (nu/nu) were obtained from Charles River Laboratories (Boston, Mass.) at 7-8 weeks old and kept under sterile conditions. The nude mice were inoculated subcutaneously in the right shoulder with 2×10^6 cultured C2C12/Ras cells or 5×10^6 MDA-MB-435 cells. When the tumors reach 0.5-0.8 cm in diameter, the tumor bearing mice were subjected to in vivo biodistribution studies. For biodistribution studies, the mice bearing C2C12/Ras or MDA-MB-435 tumor xenografts (n=3 for each group) were injected with 740 KBq (20 μCi) of ^64Cu labeled tracer through the tail vein and sacrificed at different time points post injection (p.i.). Tumor and normal tissues of interest were removed and weighed, and their radioactivity was measured in a gamma-counter. The radioactivity uptake in the tumor and normal tissues was expressed as a percentage of the injected radioactive dose per gram of tissue (% ID/g).
We next examined the overall biodistribution of ^64Cu-Z-FK(DOTA)-AOMK using athymic nude mice carrying subcutaneously grafted C2C12/Ras and MDA-MB-435 tumors. […] Importantly, we observed rapid accumulation of radioactivity in the C2C12/Ras tumors expressing high levels of cysteine cathepsins (0.35±0.13% ID/g at 0.5 h p.i.). This activity remained in the tumors resulting in an uptake of 0.27±0.05% ID/g at 24 h p.i. For the MDA-MB-435 tumors with lower cysteine cathepsin expression, tumor uptake was approximately 2 fold lower at each time point relative to the C2C12/Ras tumors (P<0.05). […] The highest radioactivity was found in the liver due to high endogenous expression of various cysteine cathepsins. Moderate renal accumulation was also observed at all times in both tumor models.
Data are expressed as the percentage administered activity (injected dose) per gram of tissue (% ID/g) after intravenous injection of 740 kBq (20 μCi) of ^64Cu-Z-FK(DOTA)-AOMK at 0.5, 2, and 24 h pi (n=3). Significant lower tumor uptake and tumor/blood, tumor/muscle ratio in MDA-MB-435 breast cancer (P<0.05) were observed.

[6] = Octanol/water partition coefficient; format: physicochemical; conditions: octanol / PBS pH 7.4, repeated 3 times
Method: Octanol/water partition coefficient. To determine the lipophilicity of ^64Cu-Z-FK(DOTA)-AOMK, approximately 370 kBq of ^64Cu-labeled complex in 500 μl of PBS (pH 7.4) was added to 500 μl of octanol in an eppendorf microcentrifuge tube. The resulting biphasic system was mixed vigorously for 10 min and left at room temperature for another 60 min. The two phases were then separated by centrifugation at 2000 g for 5 min (model 5415R Eppendorf microcentrifuge; Brinkman, Westbury, N.Y.). From each layer, an aliquot of 100 μl was removed and counted in a γ-counter (Packard Instruments). The partition coefficient (log P) was then calculated as a ratio of counts in the octanol fraction to the counts in the water fraction. The experiment was repeated 3 times. The lipophilicity of the probe affects its in vivo pharmacokinetics, and should be modest (˜0), with hydrophobic and hydrophilic groups present. For further details, see Lin et al., “Role of Pharmacokinetics and Metabolism in Drug Discovery and Development,” Pharmacological Reviews, Vol. 49, Issue 4, 403-449, December 1997.

[7] = system: Cathepsin Z, H, J, C; conditions: Kato et al. Nat Chem Biol 2005; cited from earlier work
[8] = system: cathepsin B; conditions: Kato et al. Nat Chem Biol 2005; cited from earlier work

human cathepsin L, sequence (P07711 114-333): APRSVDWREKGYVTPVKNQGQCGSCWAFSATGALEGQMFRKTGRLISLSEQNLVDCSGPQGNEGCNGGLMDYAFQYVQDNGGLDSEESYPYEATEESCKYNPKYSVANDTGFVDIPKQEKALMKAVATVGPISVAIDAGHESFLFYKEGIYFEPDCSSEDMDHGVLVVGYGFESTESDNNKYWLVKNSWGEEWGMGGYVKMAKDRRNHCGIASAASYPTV

Molecule: CCN1C(=CC=CC=CC2=[N+](CCCCCC(=O)NCCCC[C@H](NC(=O)[C@H](Cc3ccccc3)NC(=O)OCc3ccccc3)C(=O)COC(=O)c3c(C)cccc3C)c3ccc(S(=O)(=O)O)cc3C2(C)C)C(C)(C)c2cc(S(=O)(=O)O)ccc21 [GB123]
Cathepsin B and L activity of C2C12/Ras relative to MDA-MB-435 cells by probe labeling ([1]; cells labeled with Cy5-labeled probe): 7.4 fold

Molecule: CC[N+]1=C(/C=C/C=C/C=C2\N(CCCCCC(=O)NCCCC[C@H](NC(=O)[C@H](Cc3ccccc3)NC(=O)[C@H](Cc3ccccc3)NC(=O)CN3CCN(CC(=O)O)CCN(CC(=O)O)CCN(CC(=O)O)CC3)C(=O)COC(=O)c3c(C)cccc3C)c3ccc(S(=O)(=O)O)cc3C2(C)C)C(C)(C)c2cc(S(=O)(=O)O)ccc21 [GB 170, DOTA-FFK(Cy5)-AOMK]
Tumor uptake in PET studies (in words) [2]: dramatically increased uptake in tumor tissues
tumor uptake after 2 hrs [2]: 3.17 ± 0.05
tumor uptake after 24 hours [2]: 1.56 ± 0.23

Tumor uptake in PET studies (in words) [2]: overall probe uptake was very low
tumor uptake after 2 hrs [2]: 0.41 ± 0.07
tumor uptake after 24 hours [2]: 0.32 ± 0.04
Molecule: Cc1cccc(C)c1C(=O)OCC(=O)[C@H](CCCCN)NC(=O)[C@H](Cc1ccccc1)NC(=O)[C@H](Cc1ccccc1)NC(=O)CN1CCN(CC(=O)O)CCN(CC(=O)O)CCN(CC(=O)O)CC1 [GB 172, DOTA-FFK-AOMK]

Molecule: CC[N+]1=C(/C=C/C=C/C=C2\N(CCCCCC(=O)NCCCC[C@H](NC(=O)[C@H](Cc3ccccc3)NC(=O)[C@H](Cc3ccccc3)NC(=O)CN3CCN(CC(=O)O)CCN(CC(=O)O)CCN(CC(=O)O)CC3)C(N)=O)c3ccc(S(=O)(=O)O)cc3C2(C)C)C(C)(C)c2cc(S(=O)(=O)O)ccc21 [GB 173, DOTA-FFK(Cy5)-AOMK-Amide]
tumor uptake after 2 hrs [2]: 1.71 ± 0.08
tumor uptake after 24 hours [2]: 0.37 ± 0.13

Loss of potency for cathepsin B on modification of the P1 lysine [3]: 30 fold
Loss of potency towards cathepsin L on modification of the P1 lysine [4]: 100 fold
Molecule: Cc1cccc(C)c1C(=O)OCC(=O)[C@H](CCCCN)NC(=O)[C@H](Cc1ccccc1)NC(=O)OCc1ccccc1 [NH2-GB11]

Biodistribution: Tumor ([5]; 2 h p.i.): 0.30±0.03 % ID/g
Biodistribution: Tumor ([5]; 24 h p.i.): 0.27±0.05 % ID/g
log P (octanol-water partition coefficient) [6]: −0.10±0.04
Molecule: Cc1cccc(C)c1C(=O)OCC(=O)[C@H](CCCCNC(=O)CN1CCN(CC(=O)O)CCN(CC(=O)O)CCN(CC(=O)O)CC1)NC(=O)[C@H](Cc1ccccc1)NC(=O)OCc1ccccc1 [Z-FK(DOTA)-AOMK]

Molecule: Cc1cccc(C)c1C(=O)OCC(=O)[C@H](CCCNC(=N)N)NC(=O)[C@H](Cc1ccccc1)NC(=O)OCc1ccccc1 [Z-FR-AOMK]
Activity against cathepsins Z, H, J, C [7]: not cathepsins Z, H, J, H or C; also recorded: not Cathepsin Z, H, J, C or H
Activity against cathepsin B [8]: active only against cathepsin B; also recorded: inhibits cathepsin B

Molecule: JPM-OEt
Effect of inhibitor pretreatment on probe labeling of protease targets ([1]; cells pretreated with 50 μM inhibitor, then labeled with 64Cu-Z-FK(DOTA)-AOMK): complete loss of labeling
